Data reported in patent US8598342B2, “Methods and compounds for antimicrobial intervention” (President and Fellows of Harvard College, priority 2008, dated 2013).
Entries after “also recorded” stand apart in the source; their conditions may differ.

Assays:
B. subtilis 168 = assay: MIC panel of Gram-positive strains: B. subtilis 168; assay type: cell-based, Bacillus subtilis
Description: (§1) (A) Targocil MIC data for a panel of Gram-positive strains, including MRSA clinical isolates B5271 and 5340A. Growth was monitored in triplicate after 12 h at 28° C. using optical density. (B) Two dimensional drug interaction analysis between tunicamycin and targocil grown for 18 h at 30° C. […] At higher concentrations, tunicamycin is toxic because it inhibits cell wall biosynthesis. […] Varying concentrations of drug were added to […] of S. aureus RN4220 after 5 h and cell count was monitored over time at 30° C. […] Cells were grown at 28° C. for 12 h and monitored for growth using optical density (OD600). Data were normalized to the DMSO controls for each strain. (E) Two classes of mutants were examined: phage resistant (m1 3) and phage sensitive (m4-5).

S. aureus TarF = molecular target: T1, S. aureus TarF (Staphylococcus aureus, UniProt Q2G1C1); assay: In vitro enzyme inhibition assay, TarF (radiometric); assay type: biochemical; details: targocil 50 μg/mL; enzyme 200 nM
T1 construct: made in house
T1 sequence (Q2G1C1 1-389): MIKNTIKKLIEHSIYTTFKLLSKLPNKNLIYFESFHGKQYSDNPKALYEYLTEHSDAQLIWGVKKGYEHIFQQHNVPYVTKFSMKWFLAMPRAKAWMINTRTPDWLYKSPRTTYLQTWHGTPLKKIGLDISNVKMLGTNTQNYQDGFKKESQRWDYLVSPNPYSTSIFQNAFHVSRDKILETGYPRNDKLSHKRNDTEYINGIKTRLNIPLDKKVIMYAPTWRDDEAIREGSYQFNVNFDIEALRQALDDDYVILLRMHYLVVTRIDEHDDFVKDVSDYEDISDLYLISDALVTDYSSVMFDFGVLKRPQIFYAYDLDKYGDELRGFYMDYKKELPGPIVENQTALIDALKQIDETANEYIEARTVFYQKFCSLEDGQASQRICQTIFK
Description: (§2) S. aureus TarB, D, F, I, and L were cloned, overexpressed and purified as described previously (S. Brown, Y. H. Zhang, S. Walker, Chemistry & Biology 15, 12, Jan. 2008.) Radiometric in vitro assays were run to test the inhibitory effects of targocil on Tar B, D, F, and L, while TarI was assayed for targocil inhibition using an HPLC assay using conditions similar to those previously reported (ibid). See below for exact reaction conditions. […] In each case, a reaction with no targocil served as a negative control (active enzymatic reaction) and a reaction with heat-treated enzyme served as a positive control (no enzymatic reaction). Targocil was incubated with all reaction components except the substrates at room temperature. After 10 minutes, substrates were added and the reactions were allowed to proceed for 60 minutes. The reactions were quenched with DMF and the products were imaged/monitored as previously described (ibid).
TarF in vitro inhibition assay protocol. Each 3 μL reaction contained 1 μM [14C]-GroP-ManNAc β-(1,4)-GlcNAc-pp-farnesyl, 3 μM [14C]-CDP-glycerol, 20 mM Tris base pH 7.5, 100 mM NaCl, 10 mM MgCl2, 200 nM TarF. The reactions were quenched and imaged as described above for TarB.

S. aureus TarI = molecular target: T2, S. aureus TarI (Staphylococcus aureus, UniProt Q2G1C0); assay: In vitro enzyme inhibition assay, TarI (HPLC); assay type: biochemical; details: targocil 50 μg/mL; enzyme 200 nM
T2 construct: made in house
T2 sequence (Q2G1C0 1-238): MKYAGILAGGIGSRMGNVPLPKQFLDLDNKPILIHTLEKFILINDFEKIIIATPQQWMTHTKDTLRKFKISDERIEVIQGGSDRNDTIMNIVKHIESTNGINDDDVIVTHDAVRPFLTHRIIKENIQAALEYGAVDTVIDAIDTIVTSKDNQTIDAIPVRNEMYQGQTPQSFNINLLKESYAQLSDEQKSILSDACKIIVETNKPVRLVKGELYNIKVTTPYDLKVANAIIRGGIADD
Description: as §2
TarI in vitro inhibition assay protocol and data. […] The reactions were monitored by HPLC using an anion exchange column, Phenosphere 5μ SAX 250×4.6 mm, 5 μm (Phenomenex), to record the disappearance of the CTP peak and production of a new CDP ribitol peak (Buffer A: 5 mM NH4H2PO4, pH 2.8, Buffer B: 750 mM NH4H2PO4, pH 3.7, isocratic elution 75% B over 20 minutes, UV monitored at 271 nm).

[1] = system: strain overexpressing S. aureus TarGH; assay: Growth of S. aureus RN4220 overexpressing S. aureus tarGH; assay type: cell-based, Staphylococcus aureus; details: 28° C., 12 h, OD600
Description: as §1

[2] = system: S. aureus RN4220 TarG:F82L (m4); assay: MIC analysis of RN4220 carrying the mutant tarG allele TarG:F82L; assay type: cell-based, Staphylococcus aureus; details: mutant allele exchanged into RN4220
Excerpt: Therefore, we conclude that TarG is a target of targocil. […] (Davidson A L, Dassa E, Orelle C, & Chen J (2008) Microbiology and Molecular Biology Reviews 72:317-364) In addition to functioning as antibiotics, inhibitors such as targocil, and derivatives thereof, could be valuable tools for mechanistic and structural analyses of ABC transporters.

[3] = system: S. aureus RN4220 invasion of human corneal epithelial cells (HCEC); assay: Human corneal epithelial cell (HCEC) invasion / internalization model; assay type: cell-based, Staphylococcus aureus; details: wildtype S. aureus grown with 8×MIC (20 μg/mL) of targocil
Description: An overnight culture of S. aureus RN4220 and its isogenic ΔtarO strain were grown with shaking at 37° C. in either 1% DMSO or in the presence of 8×MIC (20 μg/mL) of targocil 1% DMSO. Human corneal epithelial cells (HCEC) were cultured separately in 24-well plates. Prior to incubation with HCEC, the bacteria were washed twice with keratinocyte culture media—serum free (KBM-SFM) including 8×MIC of targocil in 1% DMSO or 1% DMSO. The S. aureus strains (approximately 10^8 CFU in 1 mL of KBM-SFM including either 8×MIC of targocil 1% DMSO or 1% DMSO) were then applied to the HCEC monolayers. (The initial inoculum of each group was determined by serial dilution and plate counting.) Following incubation at 37° C. for 1 h, bacteria were removed and the monolayers were washed twice with Hank's balanced salt solution (HBSS), and covered with 1 mL of KBM-SFM containing gentamycin (100 μg/mL) and incubated at 37° C. for 1 h to kill residual extracellular bacteria. The monolayers were washed twice with HBSS, lysed, and homogenized in 1 mL of lysis solution (0.25% trypsin-0.025% Triton X-100). Lysates were serially diluted and plated on brain-heart infusion agar, and colonies were enumerated following overnight incubation at 37° C.
The data workup was done by first determining the percentage of internalized bacteria compared to the initial inoculum. […]

SMILES: CCN(CC)c1nc2c(S(=O)(=O)c3ccccc3)nnn2c2ccc(Cl)cc12 [7-chloro-N,N-diethyl-3-(phenylsulfonyl)-[1,2,3]triazolo[1,5-a]quinazolin-5-amine]
- susceptibility of B. subtilis 168 (B. subtilis 168): targocil resistance in B. subtilis 168
- inhibition of TarF (S. aureus TarF): None of these enzymes was inhibited
- inhibition of TarI (S. aureus TarI): None of these enzymes was inhibited
- resistance to targocil of strain overexpressing S. aureus TarGH [1]: partially resistant; also recorded: partial resistance
- resistance to targocil of TarG:F82L strain [2]: fully resistant; also recorded: confer resistance
- invasion of HCECs by targocil-treated bacteria [3]: behaved similarly to the ΔtarO strain
